Consider 19 molecules from patent US10501449B2 (priority 2018, dated 2019).

The target in one data set is hERG channels (Homo sapiens (Human), UniProt Q12809). Put plainly: hERG Manual Patch Clamp Assay. To be noted: HEK 293 cells stably expressing hERG channels; for inhibition at 1 µM: human, pH 7.4, 1 uM, read-out: hERG EP % Inh @ 1 uM. In kind it is cell-based.
The target in another data set is hROMK (human Kir1.1) (Homo sapiens (Human), UniProt P48048). The data set is described as follows: cell-based. To be noted: CHO T-Rex hROMK stable cell line; thallium flux; 10-point concentration response curve; read-out: Human ROMK Th Flux IC50.

The structures appear in SMILES notation.

hROMK (human Kir1.1), sequence (P48048 whole entry): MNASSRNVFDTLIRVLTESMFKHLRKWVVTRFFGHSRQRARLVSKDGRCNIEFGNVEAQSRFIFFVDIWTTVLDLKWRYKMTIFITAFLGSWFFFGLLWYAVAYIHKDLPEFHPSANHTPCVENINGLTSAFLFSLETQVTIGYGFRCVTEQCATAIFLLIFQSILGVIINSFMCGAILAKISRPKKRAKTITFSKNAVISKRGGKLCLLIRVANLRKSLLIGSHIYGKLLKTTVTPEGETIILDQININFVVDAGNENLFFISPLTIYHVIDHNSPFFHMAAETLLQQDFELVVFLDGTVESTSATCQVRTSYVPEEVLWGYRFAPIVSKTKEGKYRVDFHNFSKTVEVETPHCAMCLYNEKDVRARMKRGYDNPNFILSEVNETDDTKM
hERG channels, sequence (Q12809 whole entry): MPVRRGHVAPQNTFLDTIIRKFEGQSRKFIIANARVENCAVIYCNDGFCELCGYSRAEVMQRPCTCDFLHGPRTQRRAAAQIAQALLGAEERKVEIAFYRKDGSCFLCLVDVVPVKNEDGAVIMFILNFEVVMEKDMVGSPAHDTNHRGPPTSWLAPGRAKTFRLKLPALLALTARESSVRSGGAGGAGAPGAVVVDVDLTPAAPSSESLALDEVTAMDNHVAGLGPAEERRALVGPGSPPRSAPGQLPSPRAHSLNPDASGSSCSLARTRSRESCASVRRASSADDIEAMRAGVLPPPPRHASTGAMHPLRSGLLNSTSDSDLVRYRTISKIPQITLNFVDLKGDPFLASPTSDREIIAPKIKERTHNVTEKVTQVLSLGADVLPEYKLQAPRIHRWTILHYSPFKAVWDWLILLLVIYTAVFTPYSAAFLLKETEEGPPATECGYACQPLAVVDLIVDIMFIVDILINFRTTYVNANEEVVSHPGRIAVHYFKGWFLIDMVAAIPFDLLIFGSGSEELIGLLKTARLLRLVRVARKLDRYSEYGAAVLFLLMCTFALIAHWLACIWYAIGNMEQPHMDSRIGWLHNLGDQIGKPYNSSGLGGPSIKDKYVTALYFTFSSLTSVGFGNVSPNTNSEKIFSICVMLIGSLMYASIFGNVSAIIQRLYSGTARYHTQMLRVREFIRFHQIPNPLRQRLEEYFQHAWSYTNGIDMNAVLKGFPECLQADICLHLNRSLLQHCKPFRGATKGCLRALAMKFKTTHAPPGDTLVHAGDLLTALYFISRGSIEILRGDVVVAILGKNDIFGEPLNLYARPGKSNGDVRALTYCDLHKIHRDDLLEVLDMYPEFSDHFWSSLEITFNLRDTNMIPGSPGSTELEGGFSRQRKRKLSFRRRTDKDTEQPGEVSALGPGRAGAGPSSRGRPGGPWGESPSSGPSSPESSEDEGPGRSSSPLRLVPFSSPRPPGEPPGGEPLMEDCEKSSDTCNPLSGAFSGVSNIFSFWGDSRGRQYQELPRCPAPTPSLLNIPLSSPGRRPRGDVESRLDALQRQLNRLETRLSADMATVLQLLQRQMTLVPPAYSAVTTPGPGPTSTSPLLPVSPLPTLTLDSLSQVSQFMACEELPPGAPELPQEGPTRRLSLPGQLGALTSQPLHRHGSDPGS
Protocol for hROMK (human Kir1.1): Solutions and reagents: Thallium flux assay was performed using FluxOR kit (F10017, Life Technologies). Loading buffer, assay buffer and stimulus buffer were prepared using kit components. HBSS (Hank's balanced salt solution, Cat#14025-092) was purchased separately from Life Technologies.
To prepare 10 ml of loading buffer: 10 μl of FluxOR dye (reconstituted in DMSO) was first added to 100 μl of powerload concentrate and this mix along with 100 μl of Probenicid (100×) was then added to 9.79 ml of HBSS. Assay buffer (10 ml) was prepared by addition of 2 ml of FluxOR chloride free buffer (5×), 100 μl of Probenicid (100×), and 0.2 ml of Ouabain (13.77 mM) to 7.7 ml of deionized water. Stimulus buffer was composed of 15 mM Tl2SO4, 0.75 mM K2SO4 in FluxOR chloride free buffer (diluted to 1× using deionized water). The final concentration of Tl2SO4 and K2SO4 in the assay plate was 3 mM and 0.15 mM, respectively.
Plating and induction of cells: The CHO T-Rex hROMK (human Kir1.1) stable cell line was maintained in Ham's F12 media supplemented with 10% FBS, 1% Penicillin-Streptomycin, 500 μg/ml Zeocin and 10 μg/ml Blasticidin at 37° C. in a 5% CO2 incubator. One day before the experiment, the cells were dissociated by incubation with Versene solution (15040-066, Life Technologies) for 10 minutes at 37° C. followed by addition of growth media. The cell suspension was centrifuged at 1200 rpm for 5 min. After discarding the supernatant, the cells were resuspended in fresh growth media and cell concentration was determined using a hemocytometer. Next, 0.5 μg/ml of Doxycycline was added to the cell suspension to induce hROMK channel expression and 50 μl (10,000 cells/well) of cell suspension was added to each well of a poly-D lysine coated 384 well black, optically clear bottom plate (6007718, Perkin Elmer). The assay plate was kept at 37° C. in a 5% CO2 incubator.
Assay protocol: On the day of experiment, media was removed and loading buffer was added (30 μl/well) to the assay plate. The cells were incubated in the loading buffer for 30 minutes at 37° C. The loading buffer was then replaced by assay buffer (30 μl/well) followed by addition of test compounds or controls. The cells were incubated with compounds for 30 minutes and the plate was then mounted on FlexStation (Molecular Devices) for fluorescence read out with excitation and emission wavelengths at 488 and 525 nm, respectively. Each well was read for 90 sec at 2 sec interval and the stimulus buffer was added after 20 seconds of baseline recording. The final DMSO concentration was either 0.5 or 1% in the assay plate. Positive and negative controls were defined by addition of DMSO or 3 μM of a standard ROMK inhibitor, respectively, to the wells instead of a test compound.
A 10-point concentration response curve was used to estimate the IC50 value of test compounds.

Regarding `Cc1cc(-n2cc(CN3CC(CO)NC(c4ccc5c(c4C)COC5=O)C3)nn2)ncc1C#N` (single isomer, unassigned) [Example 88-III, 6-(4-((3-(hydroxymethyl)-5-(4-methyl-1-oxo-1,3-dihydroisobenzofur-an-5-yl)piperazin-1-yl)methyl)-1H-1,2,3-triazol-1-yl)-4-methylnicotinonitrile], on hERG channels, the inhibition at 1 µM worked out at 8.3%. Moreover, the IC50 at hROMK (human Kir1.1) was found to be 36 nM.

For the molecule `Cc1cc(-n2cc(CN3CCC(C)(O)C(c4ccc5c(c4C)COC5=O)C3)cn2)ncc1C#N` (single isomer, unassigned) [Example 114-I, 6-(4-((4-hydroxy-4-methyl-3-(4-methyl-1-oxo-1,3-dihydroisobenzofuran-5-yl)piperidin-1-yl)methyl)-1H-pyrazol-1-yl)-4-methylnicotinonitrile], the inhibition at 1 µM at hERG channels stood at 4.2%. Further, the half-inhibitory concentration (IC50) on hROMK (human Kir1.1) was found to be 32 nM.

Take `Cc1cc(-n2cc(CN3CC(c4ccc5c(c4C)COC5=O)NCC3CO)cn2)ncc1C#N` (single isomer, unassigned) [Example 123-I, 6-(4-((2-(hydroxymethyl)-5-(4-methyl-1-oxo-1,3-dihydroisobenzofuran-5-yl)piperazin-1-yl)methyl)-1H-pyrazol-1-yl)-4-methylnicotinonitrile]: the inhibition at 1 µM at hERG channels came to 7.2%. In addition, the IC50 on hROMK (human Kir1.1) worked out at 74 nM.

For `COc1cc(N2CCC(CN3CCN[C@H](c4ccc5c(c4C)COC5=O)C3)C2)ncc1C#N` (single isomer, unassigned) [Example 155-I], the “hERG EP % Inh @ 1 uM” value at hERG channels (1 uM) stood at 26%. Also, on hROMK (human Kir1.1), the IC50 stood at 11 nM.

`Cc1cc(N2CCC(CN3CCN[C@H](c4ccc5c(c4C)COC5=O)C3)C2)ncc1C#N` (single isomer, unassigned) [Example 156-I]: the inhibition at 1 µM on hERG channels is 51%. Further, on hROMK (human Kir1.1), the IC50 worked out at 14 nM.

Take `Cc1cc(N2CC(CN3CCN[C@H](c4ccc5c(c4C)COC5=O)C3)CC2=O)ncc1C#N` (single isomer, unassigned) [Example 158-I]: the inhibition at 1 µM on hERG channels is 20%. The IC50 on hROMK (human Kir1.1) is 36 nM.

For `COc1cc(N2CC(CN3C[C@@H](c4ccc5c(c4C)COC5=O)N[C@@H](C)C3)CC2=O)ncc1C#N` (single isomer, unassigned) [Example 170-I], the inhibition at 1 µM at hERG channels was found to be 26%. Also, the IC50 at hROMK (human Kir1.1) was 39 nM.

Consider `Cc1cc(-n2cc(CN3CCCC(c4ccc5c(c4C)COC5=O)C3)cn2)ncc1C#N` (single isomer, unassigned) [Example 197-I, 4-methyl-6-(4-((3-(4-methyl-1-oxo-1,3-dihydroisobenzofuran-5-yl)piperidin-1-yl)methyl)-1H-pyraozl-1-yl)nicotinonitrile], for which the inhibition at 1 µM on hERG channels stood at 75%. Besides, the IC50 on hROMK (human Kir1.1) stood at 15 nM.

For `Cc1cc(-n2cc(CN3CC(O)CC(c4ccc5c(c4C)COC5=O)C3)cn2)ncc1C#N` (single isomer, unassigned) [Example 199-IV, 6-(4-((3-hydroxy-5-(4-methyl-1-oxo-1,3-dihydroisobenzofuran-5-yl)piperidin-1-yl)methyl)-1H-pyrazol-1-yl)-4-methylnicotinonitrile], the inhibition at 1 µM on hERG channels stood at 22%. For the same molecule, the IC50 at hROMK (human Kir1.1) was 16 nM.

In the case of `COC1CC(c2ccc3c(c2C)COC3=O)CN(Cc2cnn(-c3cc(C)c(C#N)cn3)c2)C1` (single isomer, unassigned) [Example 200-II, 6-(4-((3-methoxy-5-(4-methyl-1-oxo-1,3-dihydroisobenzofuran-5-yl)piperidin-1-yl)methyl)-1H-pyrazol-1-yl)-4-methylnicotinonitrile], the inhibition at 1 µM at hERG channels amounted to 27%. Besides, on hROMK (human Kir1.1), the IC50 amounted to 64 nM.

On to `Cc1cc(-n2cc(CN3CC(F)CC(c4ccc5c(c4C)COC5=O)C3)nn2)ncc1C#N` (single isomer, unassigned) [Example 203-I, 6-(4-((3-fluoro-5-(4-methyl-1-oxo-1,3-dihydroisobenzofuran-5-yl)piperidin-1-yl)methyl)-1H-1,2,3-triaozl-1-yl)-4-methylnicotinonitrile], for which, on hERG channels, the inhibition at 1 µM worked out at 16%. Besides, the IC50 on hROMK (human Kir1.1) is 43 nM.

For the molecule `Cc1cc(-n2cc(CN3CC(c4ccc5c(c4C)COC5=O)NC(C(F)F)C3)cn2)ncc1C#N` (single isomer, unassigned) [Example 205-I, 6-(4-((3-(difluoromethyl)-5-(4-methyl-1-oxo-1,3-dihydroisobenzofuran-5-yl)piperazin-1-yl)methyl)-1H-pyrazol-1-yl)-4-methylnicotinonitrile], the inhibition at 1 µM at hERG channels is 10%. At hROMK (human Kir1.1), the IC50 was 71 nM.

On to `Cc1cc(-n2cc(CN3CC(O)C(c4ccc5c(c4C)COC5=O)C3)cn2)ncc1C#N` (single isomer, unassigned) [Example 211-I, 6-(4-((3-hydroxy-4-(4-methyl-1-oxo-1,3-dihydroisobenzofuran-5-yl)pyrrolidin-1-yl)methyl)-1H-pyrazol-1-yl)-4-methylnicotinonitrile], for which, at hERG channels, the inhibition at 1 µM amounted to 58%. Besides, the IC50 at hROMK (human Kir1.1) turned out to be 30 nM.

`Cc1cc(-n2cc(CN3CC(CO)CC(c4ccc5c(c4C)COC5=O)C3)cn2)ncc1C#N` (single isomer, unassigned) [Example 261-II, 6-(4-((3-(hydroxymethyl)-5-(4-methyl-1-oxo-1,3-dihydroisobenzofuran-5-yl)piperidin-1-yl)methyl)-1H-pyrazol-1-yl)-4-methylnicotinonitrile]: on hERG channels, the inhibition at 1 µM came to 44%. Moreover, on hROMK (human Kir1.1), the IC50 turned out to be 27 nM.

In the case of `Cc1cc(-c2cc(CN3CC(c4ccc5c(c4C)COC5=O)NC(C)(C)C3)on2)ncc1C#N` (single isomer, unassigned) [Example 268-I, 6-(5-((3,3-dimethyl-5-(4-methyl-1-oxo-1,3-dihydroisobenzofuran-5-yl)piperazin-1-yl)methyl)isoxazol-3-yl)-4-methylnicotinonitrile], on hERG channels, the inhibition at 1 µM stood at 9%. Further, at hROMK (human Kir1.1), the IC50 is 20 nM.

In the case of `Cc1c([C@@H]2CN(Cc3cnn(-c4cc(C(F)(F)F)c(C#N)cn4)c3)C[C@H](C)N2)ccc2c1COC2=O` [Example 196-I, 6-(4-(((3S,5R)-3-methyl-5-(4-methyl-1-oxo-1,3-dihydroisobenzofuran-5-yl)piperazin-1-yl)methyl)-1H-pyraozl-1-yl)-4-(trifluoromethyl)nicotinonitrile], at hERG channels, the inhibition at 1 µM is 18%.

Turning to `Cc1c([C@@H]2CN(Cc3cnc(-n4cnc(C(F)(F)F)c4)nc3)CCN2)ccc2c1COC2=O` [Example 236-I, (R)-4-methyl-5-(4-((2-(4-(triflouromethyl)-1H-imidazol-1-yl)pyrimidin-5-yl)methyl)piperazin-2-yl)isobenzofuran-1(3H)-one], on hERG channels, the inhibition at 1 µM was determined as 20%.

On to `[2H]C([2H])([2H])Oc1cc(-n2cc(CN3CCN[C@H](c4ccc5c(c4C)COC5=O)C3)nn2)ncc1C#N` [Example 263-I, (R)-4-(methoxy-d3)-6-(4-((3-(4-methyl-1-oxo-1,3-dihydroisobenzofuran-5-yl)piperazin-1-yl)methyl)-1H-1,2,3-triazol-1-yl)nicotinonitrile], for which the inhibition at 1 µM at hERG channels is 10%.

Turning to `Cc1c([C@@H]2CN(Cc3cn(-c4ccnc(C(F)F)c4)c(=O)n3C)C[C@H](C)N2)ccc2c1COC2=O` [Example 276-I, 1-(2-(difluoromethyl)pyridin-4-yl)-3-methyl-4-(((3S,5R)-3-methyl-5-(4-methyl-1-oxo-1,3-dihydroisobenzofuran-5-yl)piperazin-1-yl)methyl)-1,3-dihydro-2H-imidazol-2-one], the inhibition at 1 µM at hERG channels stood at 5.4%.
